Results: patent US11168134B2, “Methods of treating androgen deprivation therapy resistant prostate cancer” (Fondazione per l'Istituto Oncologico di Ricerca (IOR), priority 2018, dated 2021)

Tests used:
[1] = test system: MyC-CaP cells; test: CXCR2 antagonist treatment of castrated MyC-CaP allograft mice; type: in vivo, mouse
Experimental: (§1) All mice were maintained under specific pathogen-free conditions in the IRB facility and experiments were performed according to state guidelines and approved by the local ethics committee. Male C57BL/6 or FVB mice 6-8 weeks of age were purchased from Jackson Laboratories (Envigo), and acclimated for at least a week before use. C57BL/6 IL-23p19KO (IL23ko) mice were kindly provided by Prof. Federica Sallusto (IRB, Bellinzona). Pten^pc−/− mice were generated and genotyped as previously described. Female Pten^loxP/loxP mice were crossed with male PB-Cre4 transgenic mice and genotyped for Cre using following primers: primer 1 (5′-[…]-3′) and primer 2 (5′-[…]-3′) for PTEN^loxP/loxP; primer 1 (5′ […] 3′) and primer 2 (5′CAGCCACCAGCTTGCATGA 3′) for Probasin-CRE. Surgical castration was performed under anesthesia with isoflurane. Mice were monitored postoperatively for recovery from anesthesia and checked daily for 2 days postoperatively. Surgical skin clips were removed on postoperative day 5. Mice undergoing treatment were administered control vehicle or therapeutic doses of the appropriate agents. Any mouse suffering distress or greater than 15% weight loss during treatment was euthanized by CO2 asphyxiation. At the completion of study, mice were euthanized by CO2 asphyxiation and tissue was collected for histology, mRNA analysis, protein analysis, and single cell suspensions for flow cytometry. For allograft experiments, 2.5×10^6 TRAMP-C1 cells, 2.5×10^6 TRAMP-C1 IL23RKO, or 2×10^6 MyC-CaP cells were injected subcutaneously into the flank of male respectively C57BL/6 or FVB mice. When tumors were approximately 100 mm^3, mice were randomized to the treatment groups. Tumor growth was monitored daily by measuring the tumor size with caliper. The tumor volume was estimated by calculating R1*R2*R3*4/3π, where R1 and R2 are the longitudinal and lateral radii, and R3 is the thickness of tumor protruding from the surface of normal skin. Animals were sacrificed when the tumor reached approximately 600 mm^3.
(§2) αCXCR2 (AZD5069; AstraZeneca) was administered with daily intraperitoneal injections at a final concentration of 100 mg/kg on a Monday through Friday schedule. Control animals received vehicle. Enzalutamide (APExBio) was administered daily by oral gavage with a dose of 30 mg/kg/day on a Monday through Friday schedule. Rat anti-IL23 antibody (100 ng per mouse; G23-8; IgG1, kappa; eBioscience) or rat IgG1 isotype control (eBioscience) were administered weekly via intraperitoneal injection.
(§3) Tumors were disaggregated and digested in collagenase D and DNAse for 30 minutes at 37° C. to obtain single-cell suspension. For intracellular cytokine detection cells where stimulated for 5 hours with PMA/ionomycin. After neutralization of unspecific binding with αCD16/CD32 (clone 93), single-cell suspensions were stained with specific mAb (primary antibodies directly conjugated) to assess the phenotype. […] Data were analyzed using FlowJo software (TreeStar, Ashland, Oreg.).
(§4) RNA isolation (TRIzol, Qiagen) and retro-transcription with SuperScriptIII (Invitrogen, 11752-250) were performed according to the manufacturer's instructions. Quantitative PCR (qPCR) reactions (Bio-Rad) were performed using KAPA SYBR FAST qPCR green (KK4605; Applied Biosystems) and the specific primers reported below. […]

[2] = test system: prostate tumors of CTX Pten^pc−/− mice; test: CXCR2 antagonist treatment of surgically castrated Pten^pc−/− mice; type: in vivo, mouse
Experimental: All mice were maintained under specific pathogen-free conditions in the IRB facility and experiments were performed according to state guidelines and approved by the local ethics committee. Male C57BL/6 or FVB mice 6-8 weeks of age were purchased from Jackson Laboratories (Envigo), and acclimated for at least a week before use. C57BL/6 IL-23p19KO (IL23ko) mice were kindly provided by Prof. Federica Sallusto (IRB, Bellinzona). Pten^pc−/− mice were generated and genotyped as previously described. […] Mice were monitored postoperatively for recovery from anesthesia and checked daily for 2 days postoperatively. […] Tumor growth was monitored daily by measuring the tumor size with caliper. […]
Tumors were disaggregated and digested in collagenase D and DNAse for 30 minutes at 37° C. to obtain single-cell suspension. […] Data were analyzed using FlowJo software (TreeStar, Ashland, Oreg.).
as §4

[3] = test system: TRAMP-C1 cells; test: In vitro culture of prostate cancer cells under full androgen deprivation (F.A.D.); type: cell-based, mouse
Experimental: Prostate cancer cell lines were starved in Charcoal Stripped FBS (CS-FBS) medium for 72 h and then cultured with RPMI 1640 containing 10% heat-inactivated FBS (normal medium) or kept in full androgen deprivation medium (RPMI 1640 containing 10% heat-inactivated Charcoal Stripped-FBS plus Enzalutamide 10 μM; F.A.D.). Then, the cells were stimulated with or without condition media obtained from activated BM-derived MDSCs, or recombinant IL23 (100 ng/ml; R&D System), with or without αRORγ (5 μM; SR2211; Calbiochem®). Then, the cells were analyzed for Crystal Violet assay or stained with Annexin V/7AAD or collected for RNA extraction.
RNA isolation (TRIzol, Qiagen) and retro-transcription with SuperScriptIII (Invitrogen, 11752-250) were performed according to the manufacturer's instructions. Quantitative PCR (qPCR) reactions (Bio-Rad) were performed using KAPA SYBR FAST qPCR green (KK4605; Applied Biosystems) and the specific primers reported below. Primer sequences were obtained from PrimerBank (http://pga.mgh.harvard.edu/primerbank/index.html) or BIORAD. Each expression value was normalized by HPRT or GADPH level as reference.

[4] = test system: TRAMP-C1 cells; test: CXCR2 antagonist treatment of castrated TRAMP-C1 allograft mice; type: in vivo, mouse
Experimental: as §1, §2, §3, §4

[5] = test system: castration resistant prostate tumors of Pten^pc−/− mice; test: Preclinical trial in castration-resistant Pten^pc−/− mice (αIL23, ENZA, ENZA+αIL23); type: in vivo, mouse; conditions: ENZA 30 mg/kg/day oral alone
Experimental: All mice were maintained under specific pathogen-free conditions in the IRB facility and experiments were performed according to state guidelines and approved by the local ethics committee. Male C57BL/6 or FVB mice 6-8 weeks of age were purchased from Jackson Laboratories (Envigo), and acclimated for at least a week before use. C57BL/6 IL-23p19KO (IL23ko) mice were kindly provided by Prof. Federica Sallusto (IRB, Bellinzona). Pten^pc−/− mice were generated and genotyped as previously described. Female Pten^loxP/loxP mice were crossed with male PB-Cre4 transgenic mice and genotyped for Cre using following primers: primer 1 (5′-[…]-3′) and primer 2 (5′-[…]-3′) for PTEN^loxP/loxP; primer 1 (5′ […] 3′) and primer 2 (5′CAGCCACCAGCTTGCATGA 3′) for Probasin-CRE. Surgical castration was performed under anesthesia with isoflurane. Mice were monitored postoperatively for recovery from anesthesia and checked daily for 2 days postoperatively. Surgical skin clips were removed on postoperative day 5. […] Tumor growth was monitored daily by measuring the tumor size with caliper. […]
For immunohistochemistry (IHC), tissues were fixed in 10% formalin (ThermoScientific, 5701) and embedded in paraffin in accordance with standard procedures. […] All the quantifications have been done using the public online software ImmunoRatio (153.1.200.58:8080/iimunoratio/). […]

C[C@@H](Oc1cc(NS(=O)(=O)N2CCC2)nc(SCc2cccc(F)c2F)n1)[C@@H](O)CO [AZD5069]
tumor infiltration of PMN-MDSCs ([1]; castrated FVB mice with s.c. MyC-CaP tumors, AZD5069 100 mg/kg i.p., flow cytometry (FIG. 7e)): strongly reduced the tumor infiltration of PMN-MDSCs
emergence of CRPC ([1]; castrated MyC-CaP allograft mice): delayed the emergence of CRPC
tumor size ([1]; castrated MyC-CaP allograft mice (FIG. 7g)): decreased tumor size
survival ([1]; castrated MyC-CaP allograft mice, Kaplan-Meier (FIG. 7h)): longer survival
level of AR target genes in tumors ([1]; castrated MyC-CaP allograft mice, qRT-PCR (FIG. 7f)): decreased
tumor infiltration of PMN-MDSCs ([2]; AZD5069 100 mg/kg i.p. daily Monday-Friday, flow cytometry (FIG. 6f)): strongly reduced the tumor infiltration of PMN-MDSCs
progression to CRPC ([2]; judged by tumor volume and levels of AR target genes, untreated mice developed CRPCs four months after castration): did not progress to CRPCs
AR activity (AR target genes, qRT-PCR) ([3]; TRAMP-C1 cells in F.A.D., 24 h of treatment with CXCR2 antagonist (FIG. 6i)): did not directly affect
cell proliferation ([3]; TRAMP-C1 cells in F.A.D., 72 h of treatment with CXCR2 antagonist (FIG. 6h)): did not directly affect
tumor infiltration of PMN-MDSCs ([4]; castrated C57BL/6 mice with s.c. TRAMP-C1 tumors, AZD5069 100 mg/kg i.p., flow cytometry (FIG. 7a)): strongly reduced the tumor infiltration of PMN-MDSCs
emergence of CRPC ([4]; castrated TRAMP-C1 allograft mice): delayed the emergence of CRPC
tumor size ([4]; castrated TRAMP-C1 allograft mice (FIG. 7c)): decreased tumor size
survival ([4]; castrated TRAMP-C1 allograft mice, Kaplan-Meier (FIG. 7d)): longer survival
level of AR target genes in tumors ([4]; castrated TRAMP-C1 allograft mice, qRT-PCR (FIG. 7b)): decreased

CNC(=O)c1ccc(N2C(=S)N(c3ccc(C#N)c(C(F)(F)F)c3)C(=O)C2(C)C)cc1F [ENZA, Enzalutamide]
treatment effect (glands, tumor volume, proliferation) [5]: ineffective

B1: recombinant IL23: recombinant IL23 (100 ng/ml; R&D System) (protein, UniProt Q9NPF7 20-189; P29460 23-328, looked up)
Interleukin-23 subunit alpha: RAVPGGSSPAWTQCQQLSQKLCTLAWSAHPLVGHMDLREEGDEETTNDVPHIQCGDGCDPQGLRDNSQFCLQRIHQGLIFYEKLLGSDIFTGEPSLLPDSPVGQLHASLLGLSQLLQPEGHHWETQQIPSLSPSQPWQRLLLRFKILRSLQAFVAVAARVFAHGAATLSP
Interleukin-12 subunit beta: IWELKKDVYVVELDWYPDAPGEMVVLTCDTPEEDGITWTLDQSSEVLGSGKTLTIQVKEFGDAGQYTCHKGGEVLSHSLLLLHKKEDGIWSTDILKDQKEPKNKTFLRCEAKNYSGRFTCWWLTTISTDLTFSVKSSRGSSDPQGVTCGAATLSAERVRGDNKEYEYSVECQEDSACPAAEESLPIEVMVDAVHKLKYENYTSSFFIRDIIKPDPPKNLQLKPLKNSRQVEVSWEYPDTWSTPHSYFSLTFCVQVQGKSKREKKDRVFTDKTSATVICRKNASISVRAQDRYYSSSWSEWASVPCS
cell survival (AnnexinV/7AAD) ([3]; TRAMP-C1 cells kept in F.A.D., recombinant IL23 100 ng/ml (FIG. 2f-g)): promoted
transcription of androgen receptor target genes ([3]; TRAMP-C1 cells kept in F.A.D., recombinant IL23 100 ng/ml, 24 h, qRT-PCR (FIG. 2h)): increased transcription of androgen receptor target genes
cell proliferation ([3]; TRAMP-C1 cells kept in F.A.D., recombinant IL23 100 ng/ml, 72 h (FIG. 2e)): promoted proliferation
